Test results taken from PMC11062899, “De novo development of small cyclic peptides that are orally bioavailable” (Nature Chemical Biology, 2023).
“And” between values parts separate entries of the source, which are not always exact repeats. Equal entries are not always repeated.

How the values were obtained:
human α-thrombin = human α-thrombin (Homo sapiens, UniProt P00734); assay: Sub-library screen for active and permeable cyclic peptides (PAMPA plus thrombin inhibition); type: biochemical; conditions: crude, slopes normalized to DMSO; for Residual thrombin activity: Top sample: PAMPA acceptor well after 14 h, 5 μM donor; for Residual thrombin activity: Equilibrated sample: donor sample diluted to theoretical equilibrium (1 μM in assay)
Procedure: Linear dithiol peptides were synthesized in fritted 5-ml polypropylene syringes on a MultiPep RSi parallel peptide synthesizer (Intavis) by standard Fmoc-based solid-phase peptide synthesis on cysteamine 2-chlorotrityl resin (Sigma-Aldrich, 8.56000, 1.63 mmol g^−1 loading, 25 μmol scale) as described above with small changes. Amino acids (65 μmol, 2.6 eq.) were activated with HATU (63 μmol, 2.5 eq.) and NMM (145 μmol, 5.8 eq.) in 280 μl of DMF and 5 μl of NMP and let to react with the resin (25 μmol, 1 eq.) for 45 min. Couplings were performed twice for each amino acid. Resin was washed once with 800 μl of DMF, and unreacted amines were capped with 5% acetic anhydride and 6% 2,6-lutidine in 400 μl of DMF for 5 min. The resin was washed six times with 600 μl of DMF, and Fmoc protecting groups were removed by incubating the resin twice with 450 μl of a 20% piperidine solution in DMF for 5 min. The resin was washed six times with 600 μl of DMF before proceeding to the next coupling cycle. After completing the last coupling cycle, the resin was washed six times with […] of DCM. Peptide cleavage and ether precipitation were carried out as described above. After quantification with Ellman’s reagent, 1 μmol of each peptide was transferred in seven replicates to new Nunc 96-well DeepWell polypropylene plates and lyophilized. Peptides were cyclized as described above to afford 20 mM cyclic peptide stock solutions in DMSO containing 160 mM HEPES sodium salt. The amine on cyclic peptides was acylated with 5-chlorothiophene-2-carboxylic acid as follows. A 160 mM solution in 5-chlorothiophene-2-carboxylic acid was prepared in DMSO containing 160 mM HEPES sodium salt, and the acid was activated by mixing in equal volumes with a 160 mM HSTU solution in DMSO. Then, 10 μl of the activated carboxylic acid solutions and the cyclic peptide stocks were placed in Echo Qualified 384-well Low Dead Volume microplates (Labcyte), and 400 nl of cyclic peptide and 400 nl of HSTU-activated 5-chlorothiophene-2-carboxylic acid were transferred combinatorially to 384-well microplates (Greiner, 781076) using the Echo 650 acoustic liquid handler (Labcyte). Plates were centrifuged at 2,000 g for 2 min, and the reaction was allowed to proceed at room temperature for 8 h before addition of 39.2 μl of DMSO with a CERTUS FLEX liquid dispenser (Gyger). A volume of 25 μl of the resulting DMSO solutions was diluted with PBS buffer at pH 7.4 containing 5% DMSO in Nunc 96-well DeepWell polypropylene plates to afford 5 μM solutions of the acylated peptides.
The PAMPA plates were covered with a lid to avoid evaporation and incubated for 14 h at room temperature. Additionally, a diluted donor sample was prepared at the concentration representing theoretical maximum permeability (3 μM). Thereby, 30 μl of the donor sample before incubation was diluted with 20 μl of PBS buffer at pH 7.4 containing 5% DMSO. Volumes of 16 μl of each acceptor well and the diluted donor samples were transferred to a 384-well microplate (Greiner, 781076), and thrombin activity was measured as follows. Human α-thrombin (16 μl, 6 nM, Molecular Innovations) in assay buffer was dispensed into each well using a CERTUS FLEX liquid dispenser (Gyger), and plates were incubated at room temperature for 10 min. Then, 16 μl of a 150 μM fluorogenic thrombin substrate solution (Z-Gly-Gly-Arg-AMC, Bachem) in assay buffer containing 1% DMSO was added to each well, and thrombin inhibition was determined by measuring the fluorescent gain over time. Fluorescence intensity was measured on a Tecan Infinite M200 Pro microplate reader for 30 min at 25 °C with a fluorescent readout every 3 min (excitation: 360 nm, emission: 465 nm). Protease inhibition was calculated by comparing the enzymatic activity to a control without cyclic peptide.

[1] = Metabolic stability in rat liver microsomes (RLMs); conditions: for TIC value at 0 min: 0 min incubation, Ox (+16)/(+32), deMe (-14)/(-28) = mass adducts (metabolites); for TIC value at 0 min / TIC value at 5 min / TIC value at 15 min / TIC value at 30 min / TIC value at 60 min: LCMS TIC, individual replicates R1-R3, protein 0.5 mg/ml; for TIC value at 5 min: 5 min incubation; for TIC value at 15 min: 15 min incubation; for TIC value at 30 min: 30 min incubation; for TIC value at 60 min: 60 min incubation; for half-life / microsomal CLint: rat, microsomes
[2] = Half Life Mean, rat liver microsomes, mean of R1-R3
[3] = Half Life, rat liver microsomes, individual replicates R1-R3
[4] = Half-life (T1/2) in RLMs, 10 μM peptide, 37 °C, mean and s.d. of three measurements
[5] = Metabolic stability: Half life T1/2 (min), RLMs, mean and SD, three measurements
[6] = Metabolic stability: RLM CL (ul/min/mg), RLMs, mean and SD, three measurements
[7] = RLM CL Mean, rat liver microsomes, mean of R1-R3
[8] = RLM CL, rat liver microsomes, individual replicates R1-R3, incubation volume 400 ul, protein 0.5 mg/ml

| Compound | Residual thrombin activity: Top sample (human α-thrombin) | Residual thrombin activity: Equilibrated sample (human α-thrombin) | TIC value at 0 min ([1]; rat liver microsomes) | TIC value at 5 min ([1]; rat liver microsomes) | TIC value at 15 min ([1]; rat liver microsomes) | TIC value at 30 min ([1]; rat liver microsomes) | TIC value at 60 min ([1]; rat liver microsomes) | half-life [1, 2] | half-life [1, 3] | half-life [1, 4] | half-life [1, 5] | microsomal CLint [1, 6] | microsomal CLint [1, 7] | microsomal CLint [1, 8] |
| --- | --- | --- | --- | --- | --- | --- | --- | --- | --- | --- | --- | --- | --- | --- |
| O=C1CC2CCN(CC2)C(=O)[C@@H](NC(=O)c2cc(F)cc(F)c2)CSCc2ccc(cc2)CSCCNC(=O)[C@H](Cc2ccccc2)N1 [peptide 1] | – | – | 4586491 (2×) and 3645847 | 3654952 and 3734486 and 3061802 | 1752251 and 2543021 and 981764 | 740144 and 790714 and 195334 | 105910 and 231909 and 39522 | 11.5 min | 11.6 min | 11 min | 11.5 ± 1.7 min | 123 ± 18 µL/min/mg | 123 µL/min/mg | 119 µL/min/mg |
| COc1ccc(CC(=O)N[C@H]2Cc3ccc(cc3)CNC(=O)c3cccc(c3)CNC(=O)CCSCc3ccc(cc3)CSCCNC2=O)cc1OC [peptide 3] | – | – | 1629049 (2×) and 1656894 | 1396633 and 1109599 and 1416564 | 688706 and 808072 and 696583 | 432016 and 448206 and 497739 | 192689 and 235300 and 132050 | 16.9 min | 15 min | 16.9 ± 2.5 min | 16.9 ± 2.5 min | 84 ± 11 µL/min/mg | 83.8 µL/min/mg | 92.5 µL/min/mg |
| O=C1CSCCNC(=O)c2ccc(cc2)CNC(=O)[C@@H](NC(=O)C2CCS(=O)(=O)CC2)CCNC(=O)CCSC1 [compound 6] | – | – | 880057 (2×) and 553202 | 821271 and 965964 and 386285 | 765281 and 1161804 and 367708 | 697748 and 898601 and 342582 | 664165 and 808479 and 323125 | – | 50.6 min | – | – | 16.6 ± 7.6 µL/min/mg | 16.6 µL/min/mg | – |
| NC(=O)NCCC[C@@H]1NC(=O)C2CN(CCN2C(=O)C2CCCN2S(=O)(=O)c2ccc(F)cc2)C(=O)CCSC/C=C/CSCCNC1=O (stereo partly shown) [peptide 4] | – | – | 2209118 (2×) and 1061770 | 1524575 and 1610332 and 921634 | 1519207 and 1327718 and 738514 | 1146033 and 1076120 and 486997 | 743609 and 590507 and 376829 | 34.6 min | 31.2 min | 34 ± 4 min | 35 ± 4 min | 41 ± 5 µL/min/mg | 40.6 µL/min/mg | 44.4 µL/min/mg |
| Cn1nccc1C(=O)N1CCC2(CC1)NC(=O)[C@H](CC1CCCCC1)NC(=O)CCSCc1cccc(n1)CSCCNC2=O [compound 9] | – | – | 15547492 (2×) and 14631455 | 12759369 and 8856874 and 13246148 | 8028101 and 6898172 and 9892349 | 4900968 and 4228902 and 5914854 | 1719220 and 1798352 and 2620253 | 22.3 min | 17.3 min | 22 ± 4 min | 22 ± 4 min | 64 ± 11 µL/min/mg | 64.1 µL/min/mg | 80.2 µL/min/mg |
| O=C(N[C@H]1CSC/C=C\CSCCNC(=O)C2(CC2)CNC(=O)[C@H](CO)NC1=O)c1cccnc1 [peptide 2] | – | – | 4300369 (2×) and 5050392 | 4094044 and 4040957 and 4614305 | 4065591 and 3605857 and 4671032 | 3778445 and 3534653 and 4132452 | 3236121 and 3689440 and 3984891 | > 60 min | > 60 min | – | – | 10.7 ± 1.9 µL/min/mg | 10.7 µL/min/mg | 9.21 µL/min/mg |
| CC(C)[C@@H]1NC(=O)CCSCCS(=O)(=O)CCSCCNC(=O)[C@H](CNC(=O)c2ccco2)NC1=O [compound 10] | – | – | 5136707 (2×) and 3317301 | 5335426 and 4509848 and 3329443 | 4513948 and 3668718 and 2626547 | 4035558 and 3666920 and 2228136 | 3223521 and 2515297 and 2382324 | > 60 min | > 60 min | – | – | 17.6 ± 2.6 µL/min/mg | 17.6 µL/min/mg | 15.4 µL/min/mg |
| CN1CCC(=O)NCCSCC(=O)CSC[C@H](NC(=O)c2cccc(C(F)(F)F)c2)C(=O)N2CCC[C@@H](C2)C1=O [compound 8] | – | – | 6751463 (2×) and 7547988 | 6145465 and 6292775 and 6289651 | 3895721 and 6301539 and 5568669 | 3369766 and 4709220 and 3894141 | 1916782 and 2986882 and 2251799 | 37.4 min | 28.1 min | 37 ± 10 min | 37 ± 10 min | 40 ± 9 µL/min/mg | 39.6 µL/min/mg | 49.2 µL/min/mg |
| O=C1C[C@@H]2CCCN2C(=O)[C@@H](NC(=O)c2cccc(Cl)c2)CSCc2cccc(n2)CSCCNC(=O)[C@H](Cc2c[nH]c3ccccc23)N1 [compound 7] | – | – | 3550654 (2×) and 4325681 | 3349041 and 3673040 and 3817703 | 2080247 and 3097312 and 2624551 | 1705819 and 1909847 and 1817380 | 1049135 and 1421730 and 1465716 | 31.3 min | 28.4 min | 31 ± 5 min | 31 ± 5 min | 45 ± 6 µL/min/mg | 45.2 µL/min/mg | 48.8 µL/min/mg |

The next lines start with the values.

| Residual thrombin activity: Top sample (human α-thrombin) | Residual thrombin activity: Equilibrated sample (human α-thrombin) | TIC value at 0 min ([1]; rat liver microsomes) | TIC value at 5 min ([1]; rat liver microsomes) | TIC value at 15 min ([1]; rat liver microsomes) | TIC value at 30 min ([1]; rat liver microsomes) | TIC value at 60 min ([1]; rat liver microsomes) | half-life [1, 2] | half-life [1, 3] | half-life [1, 4] | half-life [1, 5] | microsomal CLint [1, 6] | microsomal CLint [1, 7] | microsomal CLint [1, 8] | Compound |
| --- | --- | --- | --- | --- | --- | --- | --- | --- | --- | --- | --- | --- | --- | --- |
| 95.6 | 96.6 | – | – | – | – | – | – | – | – | – | – | – | – | N#Cc1ccc(C[C@@H]2NC(=O)[C@@H](NC(=O)c3ccc(Cl)s3)CSCCS(=O)(=O)CCSCCNC(=O)C[C@H]3CCCN3C2=O)cc1 [C1-X35-L2] |
| 98.8 | 98.9 | – | – | – | – | – | – | – | – | – | – | – | – | COc1ccc(C[C@@H]2NC(=O)[C@@H](NC(=O)c3ccc(Cl)s3)CCSCCS(=O)(=O)CCSCCNC(=O)C[C@H]3CCCN3C2=O)cc1 [C2-X33-L2] |
| 101.9 | 101.7 | – | – | – | – | – | – | – | – | – | – | – | – | CN1C(=O)[C@@H](NC(=O)c2ccc(Cl)s2)CCSCC(=O)CSCCNC(=O)C[C@H]2CCCN2C(=O)[C@@H]1Cc1ccccc1 [C2-X32-L7] |
| – | – | 4100940 (2×) and 3001933 | 3877569 and 3883518 and 2646636 | 3731666 and 3678603 and 2895431 | 3163475 and 3179511 and 2181012 | 2955229 and 3322280 and 1801495 | > 60 min | > 60 min | – | – | – | 14.1 µL/min/mg | 12.6 µL/min/mg | O=C(Cc1c[nH]c2ccccc12)N[C@H]1CSCCS(=O)(=O)CCSCCNC(=O)C2(CCCC2)NC(=O)[C@@H]2CCCN2C1=O [compound 5] |
